Test results taken from patent US12583849B2, “KCNT1 inhibitors and methods of use” (Praxis Precision Medicines, Inc., priority 2020, dated 2026).

Biological target: T1, KCNT1 (KNa1.1, Slack) (Homo sapiens, UniProt Q5JUK3)
T1 construct: expressed in transfected cells; host or cells: HEK-TREX (tetracycline-inducible cell line)
T1 sequence (Q5JUK3 1-1230): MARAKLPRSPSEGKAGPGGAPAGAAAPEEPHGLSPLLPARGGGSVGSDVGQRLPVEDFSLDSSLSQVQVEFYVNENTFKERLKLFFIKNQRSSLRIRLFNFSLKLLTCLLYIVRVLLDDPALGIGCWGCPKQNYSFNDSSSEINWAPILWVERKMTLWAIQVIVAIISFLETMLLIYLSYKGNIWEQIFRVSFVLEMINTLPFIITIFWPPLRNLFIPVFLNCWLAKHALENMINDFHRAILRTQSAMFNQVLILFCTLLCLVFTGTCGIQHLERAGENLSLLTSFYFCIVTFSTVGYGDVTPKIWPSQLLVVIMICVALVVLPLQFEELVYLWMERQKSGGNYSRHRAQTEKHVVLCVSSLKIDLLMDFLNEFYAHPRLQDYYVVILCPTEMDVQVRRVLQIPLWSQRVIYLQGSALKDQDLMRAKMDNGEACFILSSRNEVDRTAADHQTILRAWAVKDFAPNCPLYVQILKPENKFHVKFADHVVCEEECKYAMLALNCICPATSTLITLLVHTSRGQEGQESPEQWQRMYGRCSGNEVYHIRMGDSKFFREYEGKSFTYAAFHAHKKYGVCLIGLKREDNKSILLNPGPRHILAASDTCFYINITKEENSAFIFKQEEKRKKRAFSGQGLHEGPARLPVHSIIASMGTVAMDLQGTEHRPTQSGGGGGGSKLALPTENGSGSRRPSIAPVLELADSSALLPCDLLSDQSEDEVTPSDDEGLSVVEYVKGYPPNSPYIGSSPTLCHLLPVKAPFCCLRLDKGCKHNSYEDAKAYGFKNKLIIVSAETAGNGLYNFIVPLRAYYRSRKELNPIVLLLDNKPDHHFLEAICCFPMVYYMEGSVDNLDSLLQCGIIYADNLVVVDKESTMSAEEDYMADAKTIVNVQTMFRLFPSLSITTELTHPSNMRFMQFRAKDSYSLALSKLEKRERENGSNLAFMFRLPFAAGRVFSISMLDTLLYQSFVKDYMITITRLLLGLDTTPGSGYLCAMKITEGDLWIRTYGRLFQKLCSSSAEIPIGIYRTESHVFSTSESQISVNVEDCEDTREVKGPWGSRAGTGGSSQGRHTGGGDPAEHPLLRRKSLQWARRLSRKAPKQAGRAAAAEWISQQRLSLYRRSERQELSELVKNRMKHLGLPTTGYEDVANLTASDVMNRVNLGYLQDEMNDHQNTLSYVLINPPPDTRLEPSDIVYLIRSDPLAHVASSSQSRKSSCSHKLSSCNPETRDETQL
Assay: KCNT1-WT-Basal Patch Clamp Assay
Format: cell-based
Details: tetracycline inducible cell line (HEK-TREX); SyncroPatch 384PE automated patch clamp, perforated patch mode, room temperature, step from -80 mV to 0 mV
Experimental: KCNT1-WT-Basal—Patch Clamp Assay
Inhibition of KCNT1 (KNa1.1, Slack) was evaluated using a tetracycline inducible cell line (HEK-TREX). Currents were recorded using the SyncroPatch 384PE automated, patch clamp system. Pulse generation and data collection were performed with PatchController384 V1.3.0 and DataController384 V1.2.1 (Nanion Technologies). The access resistance and apparent membrane capacitance were estimated using built-in protocols. Current were recorded in perforated patch mode (10 μM escin) from a population of cells. The cells were lifted, triturated, and resuspended at 800,000 cells/ml. The cells were allowed to recover in the cell hotel prior to experimentation. Currents were recorded at room temperature. The external solution contained the following (in mM): NaCl 105, NMDG 40, KCl 4, MgCl2 1, CaCl2 5 and HEPES 10 (pH=7.4, Osmolarity ˜300 mOsm). The extracellular solution was used as the wash, reference and compound delivery solution. The internal solution contained the following (in mM): NaCl 70, KF 70, KCl 10, EGTA 5, HEPES 5 and Escin 0.01 (pH=7.2, Osmolarity ˜295 mOsm). Escin is made at a 5 mM stock in water, aliquoted, and stored at −20° C. The compound plate was created at 2× concentrated in the extracellular solution. The compound was diluted to 1:2 when added to the recording well. The amount of DMSO in the extracellular solution was held constant at the level used for the highest tested concentration. A holding potential of −80 mV with a 100 ms step to 0 mV was used. Mean current was measured during the step to 0 mV. […] The average mean current from 3 sweeps was calculated and the % inhibition of each compound was calculated. The % Inhibition as a function of the compound concentration was fit with a Hill equation to derive IC50, slope, min and max parameters. If KCNT1 inhibition was less than 50% at the highest tested concentration or if an IC50 could not be calculated, then a percent inhibition was reported in place of the IC50.
In this table, “A” indicates IC50 of less than or equal to 1 μM; “B” indicates inhibition of between 1 μM to 20 μM; and “C” indicates inhibition of greater than or equal to 20 μM.

IC50	Compound
≤ 1000 nM	C[C@H](NC(=O)c1csc(C(F)(F)F)n1)c1nc(-c2ccnc(C(F)(F)F)c2)no1 [Compound I-10, (S)-2-(trifluoromethyl)-N-(1-(3-(2-(trifluoromethyl)pyridin-4-yl)-1,2,4-oxadiazol-5-yl)ethyl)thiazole-4-carboxamide]
≥ 20000 nM	C[C@H](NC(=O)[C@H]1CCCC(=O)N1)c1nc(-c2ccnc(C(F)(F)F)c2)no1 [Compound I-34, (R)-6-oxo-N—((S)-1-(3-(2-(trifluoromethyl)pyridin-4-yl)-1,2,4-oxadiazol-5-yl)ethyl)piperidine-2-carboxamide]
≤ 1000 nM	C[C@H](NC(=O)c1ccnc(C2CC2)c1)c1nc(-c2ccnc(C3CC3)c2)no1 [Compound I-99, (S)-2-cyclopropyl-N-(1-(3-(2-cyclopropylpyridin-4-yl)-1,2,4-oxadiazol-5-yl)ethyl)isonicotinamide]
≤ 1000 nM	C[C@H](NC(=O)C1CC2CCC1CC2)c1nc(-c2ccnc(C(F)(F)F)c2)no1 (stereo partly drawn) [Compound I-60, N—((S)-1-(3-(2-(trifluoromethyl)pyridin-4-yl)-1,2,4-oxadiazol-5-yl)ethyl)bicyclo[2.2.2]octane-2-carboxamide]
≥ 20000 nM	C[C@H](NC(=O)c1c[nH]c(C(F)(F)F)n1)c1nc(-c2ccnc(C(F)(F)F)c2)no1 [Compound I-4, (S)-2-(trifluoromethyl)-N-(1-(3-(2-(trifluoromethyl)pyridin-4-yl)-1,2,4-oxadiazol-5-yl)ethyl)-1H-imidazole-4-carboxamide]
1000 to 20000 nM	Cc1nc(C(F)(F)F)ccc1C(=O)NC(C)c1nc(-c2cccc(F)c2)no1 (stereo not drawn) [Compound I-47, N-[1-[3-(3-fluorophenyl)-1,2,4-oxadiazol-5-yl]ethyl]-2-methyl-6-(trifluoromethyl)pyridine-3-carboxamide]
≤ 1000 nM	CCOc1cc(-c2noc([C@H](C)NC(=O)C3CCCC3)n2)ccn1 [Compound I-45, (S)—N-(1-(3-(2-ethoxypyridin-4-yl)-1,2,4-oxadiazol-5-yl)ethyl)cyclopentanecar-boxamide]
≥ 20000 nM	CC(=O)N1CCC(C(=O)N[C@@H](C)c2nc(-c3ccnc(C(F)(F)F)c3)no2)CC1 [Compound I-73, 1-acetyl-N-[(1S)-1-[3-[2-(trifluoromethyl)-4-pyridyl]-1,2,4-oxadiazol-5-yl]ethyl]piperidine-4-carboxamide]
≤ 1000 nM	Cc1cccc(C(=O)N[C@@H](C)c2nc(-c3ccnc(C4CC4)c3)no2)c1 [Compound I-81, N-[(1S)-1-[3-(2-cyclopropyl-4-pyridyl)-1,2,4-oxadiazol-5-yl]ethyl]-3-methyl-benzamide]
≥ 20000 nM	CC(NC(=O)c1cn2c(n1)CCCC2)c1nc(-c2cccc(F)c2)no1 (stereo not drawn) [Compound I-52, N-[1-[3-(3-fluorophenyl)-1,2,4-oxadiazol-5-yl]ethyl]-5,6,7,8-tetrahydroimidazo[1,2-a]pyridine-2-carboxamide]
≤ 1000 nM	C[C@H](NC(=O)N1CCc2ccccc2C1)c1nc(-c2ccnc(C(F)(F)F)c2)no1 [II-11]
≤ 1000 nM	C[C@H](NC(=O)C12CCC(CC1)CC2)c1nc(-c2ccnc(C(F)(F)F)c2)no1 [Compound I-59, (S)—N-(1-(3-(2-(trifluoromethyl)pyridin-4-yl)-1,2,4-oxadiazol-5-yl)ethyl)bicyclo[2.2.2]octane-1-carboxamide]
≤ 1000 nM	CC1CC(C(=O)N[C@@H](C)c2nc(-c3ccnc(C(F)(F)F)c3)no2)C1 (mixture of isomers) [Compound I-74, 3-methyl-N-[(1S)-1-[3-[2-(trifluoromethyl)-4-pyridyl]-1,2,4-oxadiazol-5-yl]ethyl]cyclobutanecarboxamide]
≤ 1000 nM	C[C@H](NC(=O)NC(C)(C)C)c1nc(-c2ccnc(C3CC3)c2)no1 [II-7]
≤ 1000 nM	CCOc1cc(-c2noc([C@H](C)NC(=O)c3ccccc3)n2)ccn1 [Compound I-44, (S)—N-(1-(3-(2-ethoxypyridin-4-yl)-1,2,4-oxadiazol-5-yl)ethyl)benzamide]
